Laboratory results reported in publication PMC4557015, “Structure-Activity Relationships of the Bioactive Thiazinoquinone Marine Natural Products Thiaplidiaquinones A and B” (Marine Drugs, 2015).
Read-outs that look alike come from different tables or passages of the source.

Experiments:
[1] = test system: Plasmodium falciparum, NF54 strain (chloroquine sensitive), IEF stage; test: In vitro antimalarial activity, P. falciparum NF54 strain; assay type: cell-based
Excerpt: (§1) Detailed protocols have been reported elsewhere.

[2] = test system: Plasmodium falciparum, FcM29-Cameroon strain (chloroquine-resistant); test: In vitro antimalarial activity, P. falciparum FcM29-Cameroon strain; assay type: cell-based; conditions: for IC50: Plasmodium falciparum, read-out: P. falc. IC50; for activity against P. falciparum (in words): FcM29-Cameroon strain
Excerpt: as §1

[3] = test system: human leukemia T cell line Jurkat; design: method as in PMID 15857147; conditions: standard cell viability assay; read-out: cytotoxicity towards Jurkat cells IC50; cited from earlier work
Jurkat cells [4] = test: Jurkat cell cytotoxicity assay, Annexin V-FITC/PI flow cytometry; assay type: cell-based, human; conditions: for mode of Jurkat cell death (Annexin V-FITC/PI): 100 μM, 24 h treatment, flow cytometry; for concentration at which toxicity towards Jurkat cells is apparent: 24 h
Description: In addition, by using propidium iodide (PI) as a probe, from the observation of treated cells having a significant loss of nuclear DNA in combination with ROS production it was concluded that both 1 and 2 were inducing apoptosis. […] For our assessment of the mechanism of cell death, we used the combination of Annexin V-FITC and PI stains to allow us to evaluate the ability of test compounds 1–6 to induce apoptosis or necrosis (or both) in Jurkat cells. After 24 h treatment in the presence of 100 μM of each test compound, cells were analyzed by flow cytometry to identify live (AnV^−/PI^−), apoptosing (AnV^+/PI^−), necrotic (AnV^−/PI^+) and late apoptotic (AnV^+/PI^+) cells.
Cells were resuspended in cRPMI at 1 × 10^6 cells/mL and 100 μL cells added to individual wells of a 96-well round bottom plate. Compounds were made up in DMSO to 10 mM for a stock solution. A ten-fold dilution series was made for each stock solution in cRPMI from 1 mM to 10 nM and 10 μL of each added to triplicate wells, for final concentrations of 100 μM to 1 nM, along with corresponding DMSO controls. The cells plus compounds were then incubated for 24 h at 37 °C. The cells were washed in ice-cold Annexin V binding buffer (200 mL PBS with 10 mM HEPES, 140 mM NaCl and 2.5 mM CaCl2). The cell pellets were labelled with 5 μL of Annexin V-FITC (BD Pharmingen) for 15 min at 4 °C. Cells were washed again with ice-cold Annexin V buffer and labelled with 10 μL of 5 μg/mL PI for 7 min at 4 °C. Cells were washed and resuspended in FACS buffer, and Annexin V/PI staining analysed using flow cytometry. Annexin V positive cells were undergoing apoptosis, while PI positive cells were necrotic. Double positive cells were dead, while double negative cells were live cells.

[5] = target: Human farnesyltransferase (Homo sapiens, UniProt P49354+P49356); test: Anti-farnesyltransferase assay (human); assay type: biochemical; conditions: average of three assays; read-out: FTase (H) IC50
Excerpt: as §1

[6] = target: Trypanosoma brucei farnesyltransferase (Trypanosoma brucei, UniProt Q57U08+Q580J3); test: Anti-farnesyltransferase assay (T. brucei); assay type: biochemical
Excerpt: as §1

Jurkat cells [7] = test system: Jurkat cells; design: method as in PMID 15857147; conditions: relative to untreated cells; cited from earlier work
Jurkat cells [8] = test: Intracellular ROS, DHR123 flow cytometry; assay type: cell-based, human; conditions: top test concentration of 100 μM, 30 min
Description: In the present study, the presence of ROS in Jurkat cells was determined using dihydrorhodamine 123 (DHR123), a cell permeable probe that becomes fluorescent when oxidized to rhodamine 123 in the presence of ROS [7]. Once the cells were loaded with DHR123, they were then treated with test compounds at a range of concentrations, and the mean fluorescent intensity determined by flow cytometry.
Cells were resuspended in HBSS at 1 × 10^6 cells/mL and 100 μL cells added to individual wells of a 96-well round bottom plate. DHR123 was added to the wells for a final concentration of 500 nM per well and cells incubated for 5 min to allow uptake of DHR123. Compounds were made up in DMSO to 10 mM for a stock solution. A ten-fold dilution series was made for each stock solution in HBSS from 1 mM to 10 nM and 10 μL of each added to triplicate wells, for final concentrations of 100 μM to 1 nM, along with corresponding DMSO controls. The assay was incubated at 37 °C for 30 min, and the cells were washed and resuspended in FACS buffer (PBS with 0.1% BSA and 0.2% sodium azide). Intracellular ROS was measured by flow cytometry analysis of DHR123 uptake.

MALME-3M = test: NCI-60 five-dose in vitro cytotoxicity screening, MALME-3M; assay type: cell-based, human; conditions: NCI 5-dose testing
Excerpt: as §1

MDA-MB-435 = test: NCI-60 five-dose in vitro cytotoxicity screening, MDA-MB-435; assay type: cell-based, human; conditions: NCI 5-dose testing
Excerpt: as §1

Pf K1 strain = test system: Pf K1 strain; design: method as in PMID 21958335; conditions: read-out: antimalarial activity IC50; cited from earlier work
[9] = average of three assays, read-out: FTase (T. b.) IC50
[10] = FcM29-Cameroon strain (chloroquine-resistant), average of three assays
[11] = NF54 strain (chloroquine sensitive), IEF stage, average of two independent assays, read-out: P. falc. IC50

Trypanosoma brucei farnesyltransferase, sequence (Q580J3 entry or part of it): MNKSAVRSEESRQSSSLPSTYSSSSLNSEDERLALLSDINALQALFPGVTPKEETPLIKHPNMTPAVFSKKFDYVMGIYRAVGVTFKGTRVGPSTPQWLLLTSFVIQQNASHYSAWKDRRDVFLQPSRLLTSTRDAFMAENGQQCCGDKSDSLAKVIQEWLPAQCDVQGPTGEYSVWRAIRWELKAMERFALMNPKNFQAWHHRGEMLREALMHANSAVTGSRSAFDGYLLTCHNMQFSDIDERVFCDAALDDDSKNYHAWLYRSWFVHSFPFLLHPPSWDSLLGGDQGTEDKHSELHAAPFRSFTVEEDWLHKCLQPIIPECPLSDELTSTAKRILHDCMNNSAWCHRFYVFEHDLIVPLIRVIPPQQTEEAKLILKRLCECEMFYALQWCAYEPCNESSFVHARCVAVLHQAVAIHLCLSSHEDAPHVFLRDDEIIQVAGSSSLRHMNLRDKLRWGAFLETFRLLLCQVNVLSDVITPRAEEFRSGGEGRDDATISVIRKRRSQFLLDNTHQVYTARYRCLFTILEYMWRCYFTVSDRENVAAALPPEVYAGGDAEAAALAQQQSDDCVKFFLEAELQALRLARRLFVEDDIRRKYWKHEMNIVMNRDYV
Trypanosoma brucei farnesyltransferase, sequence (Q57U08 entry or part of it): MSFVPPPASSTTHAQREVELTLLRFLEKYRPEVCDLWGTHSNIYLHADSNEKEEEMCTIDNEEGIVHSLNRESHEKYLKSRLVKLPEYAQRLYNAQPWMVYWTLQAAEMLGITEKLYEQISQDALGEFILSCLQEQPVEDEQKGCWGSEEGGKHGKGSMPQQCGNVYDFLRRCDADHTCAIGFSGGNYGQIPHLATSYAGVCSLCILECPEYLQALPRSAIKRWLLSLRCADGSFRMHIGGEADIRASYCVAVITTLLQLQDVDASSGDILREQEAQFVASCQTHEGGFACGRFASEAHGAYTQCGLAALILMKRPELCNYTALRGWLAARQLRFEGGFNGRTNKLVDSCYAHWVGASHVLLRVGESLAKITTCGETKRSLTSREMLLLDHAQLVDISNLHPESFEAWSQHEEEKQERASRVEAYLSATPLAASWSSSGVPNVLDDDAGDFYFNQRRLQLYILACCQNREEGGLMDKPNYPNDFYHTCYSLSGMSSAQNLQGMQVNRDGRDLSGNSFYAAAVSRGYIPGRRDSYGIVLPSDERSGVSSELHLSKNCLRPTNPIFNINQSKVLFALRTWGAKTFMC

IC50 [5]	IC50 [6, 9]	IC50 [2, 10]	SMILES	mode of Jurkat cell death (Annexin V-FITC/PI) (Jurkat cells [4])	concentration at which toxicity towards Jurkat cells is apparent (Jurkat cells [4])	accumulation of intracellular ROS (DHR123 fluorescence) (Jurkat cells [8])	further results
0.78 ± 0.17 µM	0.74 ± 0.2 µM	> 17 µM	CC(C)=CCC/C(C)=C/Cc1cc(O)cc2c1OC(/C=C(\C)CCC=C(C)C)C1=C2C(=O)C2=C(C1=O)S(=O)(=O)CCN2 (centres unmarked) [Compound 1, thiaplidiaquinone A]	inducing both necrosis (PI^+/AV^−) and apoptosis (PI^−/AV^+)	~100 µM	only modest levels of accumulation of intracellular ROS	IC50 [3]: ~3 µM; accumulation of intracellular ROS, % of cells (Jurkat cells [7]): 97%; activity against P. falciparum (in words) [2]: inactive
1.22 ± 0.068 µM	3.04 ± 0.3 µM	> 17 µM	CC(C)=CCC/C(C)=C/Cc1cc2c(cc1O)C1=C(C(=O)C3=C(NCCS3(=O)=O)C1=O)C(/C=C(\C)CCC=C(C)C)O2 (centres unmarked) [Compound 2, thiaplidiaquinone B]	cell death almost exclusively via apoptosis	~100 µM	only modest levels of accumulation of intracellular ROS	IC50 [3]: ~3 µM; accumulation of intracellular ROS, % of cells (Jurkat cells [7]): 93%; activity against P. falciparum (in words) [2]: inactive
0.14 ± 0.0017 µM	0.22 ± 0.034 µM	4.56 ± 0.76 µM	CC(C)=CCC/C(C)=C/Cc1cc(O)cc2c1OC(/C=C(\C)CCC=C(C)C)C1=C2C(=O)C2=C(NCCS2(=O)=O)C1=O (centres unmarked) [Compound 3]	cell death by necrosis	~100 µM	the most potent generator of intracellular ROS	GI50 (MALME-3M; Homo sapiens): 0.1 µM; LC50 (MALME-3M; Homo sapiens): 3.4 µM; TGI (MALME-3M): 0.60 µM; GI50 (MDA-MB-435; Homo sapiens): 0.052 µM; LC50 (MDA-MB-435; Homo sapiens): 0.66 µM; TGI (MDA-MB-435): 0.18 µM

The next lines start with the compound.

SMILES	IC50 [5]	IC50 [6, 9]	IC50 [2, 10]	mode of Jurkat cell death (Annexin V-FITC/PI) (Jurkat cells [4])	concentration at which toxicity towards Jurkat cells is apparent (Jurkat cells [4])	accumulation of intracellular ROS (DHR123 fluorescence) (Jurkat cells [8])	further results
CCN(CC)CCCC(C)Nc1ccnc2cc(Cl)ccc12 (centres unmarked) [Chloroquine, reference compound]	–	–	–	–	–	–	IC50 ([1]; NF54, read-out: P. falc. IC50): 0.0063 µM; IC50 [2]: 0.45 µM
CC(C)=CCC/C(C)=C/Cc1cc2c(cc1O)C1=C(C(=O)C3=C(C1=O)S(=O)(=O)CCN3)C(/C=C(\C)CCC=C(C)C)O2 (centres unmarked) [Compound 4]	0.054 ± 0.005 µM	0.098 ± 0.008 µM	4.39 ± 0.77 µM	dominantly via apoptosis	~100 µM	–	–
CC(C)=CCC/C(C)=C/Cc1cc(O)cc2c1OC(/C=C(\C)CCC=C(C)C)C1=C2C(=O)C=CC1=O (centres unmarked) [Compound 5]	3.7 ± 0.6 µM	3.9 ± 0.6 µM	–	dominated by late stage apoptosis (PI^+/AV^+)	–	–	IC50 [1, 11]: 2.2 µM
CC(C)=CCC/C(C)=C/Cc1cc2c(cc1O)C1=C(C(=O)C=CC1=O)C(/C=C(\C)CCC=C(C)C)O2 (centres unmarked) [Compound 6]	1.64 ± 0.3 µM	–	–	dominated by late stage apoptosis (PI^+/AV^+)	–	–	IC50 [1, 11]: 2.3 µM; IC50 [6]: 6.16 ± 1.4 µM
CSCC[C@H](NC(=O)c1ccc(NC[C@@H](N)CS)cc1-c1ccccc1)C(=O)O [FTI 276, reference compound]	–	0.01 ± 0.002 µM	–	–	–	–	–
COC1=CC(=O)C2=C(C1=O)C(/C=C(\C)CCC=C(C)C)Oc1cc(OC)c(O)c(C/C=C(\C)CCC=C(C)C)c12 (centres unmarked) [scabellone B]	–	–	–	–	–	–	IC50 (Pf K1 strain): 4.8 µM
